Assay results from US5654451A, “Amino acids and peptides having modified C-terminals and modified N-terminals” (Magainin Pharmaceuticals Inc., priority 1995, dated 1997).
Values after ≈ are worked out from the molar mass of the structure shown.

Tests used:
Assay in all cases: Antimicrobial assay (MIC, microtiter broth dilution)
Type in all cases: cell-based
[1] = test system: T. mentagrophytes; conditions: strain 18748
[2] = test system: C. tropicalis; conditions: for MIC C. tropicalis 13803: strain 13803; for MIC C. tropicalis 28707: strain 28707
[3] = test system: S. marcescens
[4] = test system: C. kefyr; conditions: strain 28838
[5] = test system: C. parapsilosis; conditions: for MIC C. parapsilosis 10232: strain 10232; for MIC C. parapsilosis 22109: strain 22109
[6] = test system: E. faecium; conditions: strain 26143
[7] = test system: P. gingivalis
[8] = test system: E. floccosum; conditions: strain 52062
[9] = test system: E. faecalis
[10] = test system: P. mirabilis
[11] = test system: T. rubrum; conditions: strain 36262
[12] = test system: M. canis; conditions: strain 11621
[13] = test system: C. albicans; conditions: for MIC C. albicans: Table I; for MIC C. albicans 14053: strain 14053; for MIC Candida: Table VI
Experimental: (§1) The procedure for the antimicrobial assay is based upon the guidelines of the National Committee for Clinical Laboratory Standards, Document M7-T2, Volume 8, No. 8, 1988.
(§2) 1-5×10^5 CFUs/ml of either S. aureus ATCC 25923, E. coli ATCC 25922, P. aeruginosa ATCC 27853, or C. albicans were added to the wells in full strength Mueller Hinton broth (BBL 11443) from a mid-log culture. The inoculum is standardized spectrophotometrically at 600 nm and is verified by colony counts. The plates are incubated for 16-20 hours at 37° C., and the minimal inhibitory concentrations (MIC) for the compounds are determined. Minimal inhibitory concentration is defined as the lowest concentration of amino acid or peptide which produces a clear well in the microtiter plate.

[14] = test system: S. aureus; conditions: for MIC S. aureus: Table I, S. aureus ATCC 25923; for MIC S. aureus 29213: strain 29213 (Tables II-V); for MIC Staph: Table VI
Experimental: as §1, §2

[15] = test system: E. coli; conditions: for MIC E. coli 25922: strain 25922 (Tables II-V)
Experimental: as §1, §2

[16] = test system: P. aeruginosa; conditions: for MIC P aeruginosa: Table I, P. aeruginosa ATCC 27853; for MIC P. aeruginosa 27853: strain 27853 (Tables II-V); for MIC Psuedo: Table VI
Experimental: as §1, §2

[17] = test system: L. fermentum; conditions: strain 23271
[18] = test system: C. difficile; conditions: for MIC C. difficile P324: strain P324; for MIC C. difficile TTU614: strain TTU614
[19] = test system: B. fragilis; conditions: strain 25285

NC(N)=NC(Cc1ccccc1)C(=O)NCCCCCCCCCCCCNC(=O)C(Cc1ccccc1)N=C(N)N (stereo not drawn) [Compound 3, 1,12-[bis-N-α-amidino-phenylalanyl]diaminododecane]
MIC T. mentagrophytes 18748 [1]: 16 µg/mL (≈ 27.6 µM) | MIC C. tropicalis 13803 [2]: 2 µg/mL (≈ 3.46 µM) | MIC C. tropicalis 28707 [2]: 0.5 µg/mL (≈ 0.864 µM) | MIC S. marcescens 18963 ([3]; strain 18963): 64 µg/mL (≈ 111 µM) | MIC S. marcescens 23420 ([3]; strain 23420): > 256 µg/mL | MIC C. kefyr 28838 [4]: 2 µg/mL (≈ 3.46 µM) | MIC C. parapsilosis 10232 [5]: 2 µg/mL (≈ 3.46 µM) | MIC C. parapsilosis 22109 [5]: 2 µg/mL (≈ 3.46 µM) | MIC E. faecium 26143 [6]: 2 µg/mL (≈ 3.46 µM) | MIC P. gingivalis 9-14K-1 ([7]; strain 9-14K-1): 4 µg/mL (≈ 6.91 µM) | MIC P. gingivalis 381 ([7]; strain 381): 4 µg/mL (≈ 6.91 µM) | MIC P. gingivalis A7A1-28 ([7]; strain A7A1-28): 4 µg/mL (≈ 6.91 µM) | MIC P. gingivalis FAY-19M-1 ([7]; strain FAY-19M-1): 4 µg/mL (≈ 6.91 µM) | MIC P. gingivalis W50 ([7]; strain W50): 4 µg/mL (≈ 6.91 µM) | MIC E. floccosum 52062 [8]: 16 µg/mL (≈ 27.6 µM) | MIC E. faecalis 19052 ([9]; strain 19052): 1,2 μg/ml | MIC E. faecalis 19290 ([9]; strain 19290): 1,2 μg/ml | MIC E. faecalis 23296 ([9]; strain 23296): 1,2 μg/ml | MIC E. faecalis 29212 ([9]; strain 29212): 1,2 μg/ml | MIC P. mirabilis 23147 ([10]; strain 23147): > 256 µg/mL | MIC P. mirabilis 24231 ([10]; strain 24231): > 256 µg/mL | MIC T. rubrum 36262 [11]: 16 µg/mL (≈ 27.6 µM) | MIC M. canis 11621 [12]: 32 µg/mL (≈ 55.3 µM) | MIC C. albicans [13]: 4 µg/mL (≈ 6.91 µM) | MIC C. albicans 14053 [13]: 4 µg/mL (≈ 6.91 µM) | MIC S. aureus [14]: 1 µg/mL (≈ 1.73 µM) | MIC S. aureus 29213 [14]: 1 µg/mL (≈ 1.73 µM) | MIC E. coli ([15]; Table I, E. coli ATCC 25922): 4 µg/mL (≈ 6.91 µM) | MIC E. coli 25922 [15]: 4 µg/mL (≈ 6.91 µM) | MIC P aeruginosa [16]: 8 µg/mL (≈ 13.8 µM) | MIC P. aeruginosa 27853 [16]: 4,32 μg/ml

N=C(N)NC(Cc1ccc(O)cc1)C(=O)NCCCCCCCCCCCCNC(=O)C(Cc1ccc(O)cc1)NC(=N)N (stereo not drawn) [Compound 4, 1,12-[bis-N-α-amidino-tyrosyl)diaminododecane]
MIC L. fermentum 23271 [17]: 4,8 μg/ml | MIC C. difficile P324 [18]: 4 µg/mL (≈ 6.55 µM) | MIC C. difficile TTU614 [18]: 32 µg/mL (≈ 52.4 µM) | MIC B. fragilis 25285 [19]: 256 µg/mL (≈ 419 µM) | MIC C. albicans [13]: > 256 µg/mL | MIC C. albicans 14053 [13]: 128,256 μg/ml | MIC S. aureus [14]: 2 µg/mL (≈ 3.27 µM) | MIC S. aureus 29213 [14]: 2,4 μg/ml | MIC E. coli ([15]; Table I, E. coli ATCC 25922): 128 µg/mL (≈ 210 µM) | MIC E. coli 25922 [15]: 64,256 μg/ml | MIC P aeruginosa [16]: 128 µg/mL (≈ 210 µM) | MIC P. aeruginosa 27853 [16]: 128 µg/mL (≈ 210 µM)

NC(N)=NC(Cc1ccccc1)C(=O)NCCCCCCCNC(=O)C(Cc1ccccc1)N=C(N)N (stereo not drawn) [Compound 6, 1,7-[bis-N-α-amidino-phenylalanyl]diaminoheptane]
MIC L. fermentum 23271 [17]: 64 µg/mL (≈ 126 µM) | MIC C. difficile P324 [18]: 128 µg/mL (≈ 252 µM) | MIC B. fragilis 25285 [19]: 256 µg/mL (≈ 503 µM) | MIC C. albicans [13]: 256 µg/mL (≈ 503 µM) | MIC C. albicans 14053 [13]: 256 µg/mL (≈ 503 µM) | MIC S. aureus [14]: 64 µg/mL (≈ 126 µM) | MIC S. aureus 29213 [14]: 64,128 μg/ml | MIC E. coli ([15]; Table I, E. coli ATCC 25922): > 256 µg/mL | MIC E. coli 25922 [15]: > 256 µg/mL | MIC P aeruginosa [16]: > 256 µg/mL | MIC P. aeruginosa 27853 [16]: > 256 µg/mL

NC(Cc1ccc(F)cc1)C(=O)NCCCCCCCCCCCCNC(=O)C(N)Cc1ccc(F)cc1 (stereo not drawn) [Compound 19]
MIC T. mentagrophytes 18748 [1]: 4 µg/mL (≈ 7.54 µM) | MIC E. floccosum 52062 [8]: 16 µg/mL (≈ 30.1 µM) | MIC T. rubrum 36262 [11]: 16 µg/mL (≈ 30.1 µM) | MIC M. canis 11621 [12]: 32 µg/mL (≈ 60.3 µM) | MIC C. albicans 14053 [13]: 32 µg/mL (≈ 60.3 µM) | MIC S. aureus 29213 [14]: 4 µg/mL (≈ 7.54 µM) | MIC E. coli 25922 [15]: 16 µg/mL (≈ 30.1 µM) | MIC P. aeruginosa 27853 [16]: 256 µg/mL (≈ 482 µM)

N=C(N)NC(Cc1ccccc1)C(=O)Nc1ccc(C=Cc2ccc(NC(=O)C(N)Cc3ccccc3)cc2)cc1 (stereo not drawn) [Compound 24, 4-(N-α-amidino-phenylalanyl)-4'-phenylalanyl-diaminostilbene]
MIC L. fermentum 23271 [17]: 4 µg/mL (≈ 7.32 µM) | MIC C. difficile TTU614 [18]: 16 µg/mL (≈ 29.3 µM) | MIC B. fragilis 25285 [19]: 8 µg/mL (≈ 14.6 µM) | MIC C. albicans 14053 [13]: 256 µg/mL (≈ 468 µM) | MIC E. coli 25922 [15]: 16 µg/mL (≈ 29.3 µM) | MIC P. aeruginosa 27853 [16]: 32,64 μg/ml

N=C(N)NCCCCCCCCCCCCNC(=N)N [Compound 36, 1,12 [bisguanyl]diaminododecane]
MIC C. tropicalis 13803 [2]: 0.5 µg/mL (≈ 1.76 µM) | MIC C. tropicalis 28707 [2]: ≤ 0.25 µg/mL | MIC C. kefyr 28838 [4]: 4 µg/mL (≈ 14.1 µM) | MIC C. parapsilosis 10232 [5]: 0.5 µg/mL (≈ 1.76 µM) | MIC C. parapsilosis 22109 [5]: 4 µg/mL (≈ 14.1 µM) | MIC C. albicans [13]: 32 µg/mL (≈ 112 µM) | MIC C. albicans 14053 [13]: 4,32 μg/ml | MIC S. aureus [14]: 8 µg/mL (≈ 28.1 µM) | MIC S. aureus 29213 [14]: 8 µg/mL (≈ 28.1 µM) | MIC E. coli ([15]; Table I, E. coli ATCC 25922): 32 µg/mL (≈ 112 µM) | MIC E. coli 25922 [15]: 32 µg/mL (≈ 112 µM) | MIC P aeruginosa [16]: 128 µg/mL (≈ 450 µM) | MIC P. aeruginosa 27853 [16]: 128 µg/mL (≈ 450 µM)

p-Guanidino methyl-benzoyl dioctylamide [Compound 72]
MIC Candida [13]: 0.5 µg/mL | MIC Staph [14]: 1 µg/mL | MIC E. coli ([15]; Table VI): 4 µg/mL | MIC Psuedo [16]: 64 µg/mL

phenylalanyl heptylamide [Compound 26]
MIC C. albicans [13]: 128 µg/mL | MIC S. aureus [14]: 256 µg/mL | MIC E. coli ([15]; Table I, E. coli ATCC 25922): 128 µg/mL | MIC P aeruginosa [16]: > 256 µg/mL

β-Guanidino-propionyl adamantanamide [Compound 82]
MIC Candida [13]: > 256 µg/mL | MIC Staph [14]: 64 µg/mL | MIC E. coli ([15]; Table VI): > 256 µg/mL | MIC Psuedo [16]: > 256 µg/mL

β-Guanidino-propionyl dioctylamide [Compound 75]
MIC Candida [13]: 1.0 µg/mL | MIC Staph [14]: 0.5 to 1.0 µg/mL | MIC E. coli ([15]; Table VI): 4 to 8 µg/mL | MIC Psuedo [16]: 16 µg/mL

β-Guanidino-propionyl dodecylamide [Compound 37]
MIC Candida [13]: 4 µg/mL | MIC Staph [14]: 1 µg/mL | MIC E. coli ([15]; Table VI): 4 to 8 µg/mL | MIC Psuedo [16]: 16 µg/mL

γ-Guanidino-butyryl dioctylamide [Compound 71]
MIC Candida [13]: < 0.25 µg/mL | MIC Staph [14]: 0.5 to 1.0 µg/mL | MIC E. coli ([15]; Table VI): 4 µg/mL | MIC Psuedo [16]: 32 µg/mL
